According to ChEMBL document CHEMBL2057100, “The optimization of pyridazinone series of glucan synthase inhibitors” (Bioorg Med Chem Lett, 2012):
pIC50: −log10 of the molar value. In brackets after ≈: the same amount, converted by molar mass.

How the values were obtained:
Beta-1,3-glucan synthase = target: T1, Beta-1,3-glucan synthase (Candida albicans, UniProt O13383); experiment: Inhibition of 1,3-beta-D-glucan synthase in Candida albicans BWP17 membranes; type: cell membranes
T1 sequence (O13383 whole entry): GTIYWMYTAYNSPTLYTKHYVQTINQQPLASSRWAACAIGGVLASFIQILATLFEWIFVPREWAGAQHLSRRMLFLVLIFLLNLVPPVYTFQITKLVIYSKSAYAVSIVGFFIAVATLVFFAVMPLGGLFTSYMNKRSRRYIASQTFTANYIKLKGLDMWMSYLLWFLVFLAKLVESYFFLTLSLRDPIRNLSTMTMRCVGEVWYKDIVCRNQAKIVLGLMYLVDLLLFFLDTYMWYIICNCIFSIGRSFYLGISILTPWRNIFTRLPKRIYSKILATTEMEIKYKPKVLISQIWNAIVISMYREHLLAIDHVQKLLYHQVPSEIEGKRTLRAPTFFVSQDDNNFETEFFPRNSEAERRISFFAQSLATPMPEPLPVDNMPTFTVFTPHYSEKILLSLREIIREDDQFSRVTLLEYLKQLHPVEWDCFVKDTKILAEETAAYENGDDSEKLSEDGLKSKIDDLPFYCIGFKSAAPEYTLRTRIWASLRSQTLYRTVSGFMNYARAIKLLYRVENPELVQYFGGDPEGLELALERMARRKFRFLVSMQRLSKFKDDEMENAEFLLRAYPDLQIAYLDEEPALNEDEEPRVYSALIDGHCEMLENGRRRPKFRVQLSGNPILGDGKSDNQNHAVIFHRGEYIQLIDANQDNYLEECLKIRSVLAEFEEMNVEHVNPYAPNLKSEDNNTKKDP

Nakaseomyces glabratus = experiment: Antifungal activity against Candida glabrata C624 by broth dilution method; type: functional; conditions: read-out: MIC100
Candida albicans = experiment: Antifungal activity against Candida albicans C693 by broth dilution method; type: functional; conditions: read-out: MIC100
[1] = AUC (0 to 6 hrs) in rat at 10 mg/kg, po; type: ADME, organism-based, Plasma; parameters: time < 6 hr, dose 10 mg/kg, route oral; conditions: plasma
Aspergillus fumigatus = experiment: Antifungal activity against Aspergillus fumigatus ND158 by broth dilution method; type: functional; conditions: read-out: MEC
[2] = Cmax in rat at 10 mg/kg, po; type: ADME, organism-based; parameters: dose 10 mg/kg, route oral; conditions: in vivo

SMILES	pIC50 (Beta-1,3-glucan synthase)	MIC (Nakaseomyces glabratus) [µg/mL]	MIC (Candida albicans) [µg/mL]	AUC(0-t) at 6 h [1] [ng·h/mL]	Cmax [2] [ng/mL]	minimal effective concentration (Aspergillus fumigatus) [µg/mL]
CC1(COc2c(N3CCN(S(=O)(=O)Cc4ccc(N)nc4)CC3)cnn(-c3cccc(Cl)c3)c2=O)CC1	7.04	0.06 (≈ 0.11 µM)	2.08 (≈ 3.82 µM)	3100	1000	8.4
CC(C)c1cc(CS(=O)(=O)N2CCN(c3cnn(-c4cccc(Cl)c4)c(=O)c3OCC3(C)CC3)CC2)ccc1N	6.20	16.7 (≈ 28.5 µM)	> 33	2100	700	> 33
Nc1ccc(CS(=O)(=O)N2CCN(c3cnn(-c4cc(F)cc(F)c4)c(=O)c3OC3CCCC3)CC2)cc1	6.96	0.26 (≈ 0.477 µM)	1.04 (≈ 1.91 µM)	8100		
CC1(COc2c(N3CCN(S(=O)(=O)Cc4cccnc4N)CC3)cnn(-c3cccc(Cl)c3)c2=O)CC1	6.62	0.06 (≈ 0.11 µM)	2.08 (≈ 3.82 µM)	5200	1700	8.4
CC1(COc2c(N3CCN(S(=O)(=O)Cc4ccnc(N)c4)CC3)cnn(-c3cccc(Cl)c3)c2=O)CC1	6.56	1.04 (≈ 1.91 µM)	16.7 (≈ 30.6 µM)			8.4
CN(C)c1ccc(CS(=O)(=O)N2CCN(c3cnn(-c4cccc(Cl)c4)c(=O)c3OCC3(C)CC3)CC2)cc1	7.06	0.06 (≈ 0.105 µM)	0.26 (≈ 0.454 µM)			16.7
CC(C)(O)CCOc1c(N2CCN(S(=O)(=O)Cc3ccccc3)CC2)cnn(-c2cc(F)cc(F)c2)c1=O	6.25	0.78 (≈ 1.42 µM)	25 (≈ 45.6 µM)			
Cc1cc(CS(=O)(=O)N2CCN(c3cnn(-c4cccc(Cl)c4)c(=O)c3OCC3(C)CC3)CC2)ccc1N	6.84	0.13 (≈ 0.233 µM)	1.04 (≈ 1.86 µM)	15000	3000	2.08
O=c1c(OC2CCCC2)c(N2CCN(S(=O)(=O)Cc3cccc(F)c3)CC2)cnn1-c1cc(F)cc(F)c1	7.14	< 0.02	0.1 (≈ 0.182 µM)			
Nc1cccc(CS(=O)(=O)N2CCN(c3cnn(-c4cc(F)cc(F)c4)c(=O)c3OC3CCCC3)CC2)c1	6.89	0.13 (≈ 0.238 µM)	0.52 (≈ 0.953 µM)	5700		
CC1(COc2c(N3CCN(S(=O)(=O)Cc4ccc(N)c(F)c4)CC3)cnn(-c3cc(F)cc(F)c3)c2=O)CC1	7.27	0.06 (≈ 0.106 µM)	0.26 (≈ 0.461 µM)	890	310	2.08
CCc1cc(CS(=O)(=O)N2CCN(c3cnn(-c4cccc(Cl)c4)c(=O)c3OCC3(C)CC3)CC2)ccc1N	6.50	0.13 (≈ 0.227 µM)	4.2 (≈ 7.34 µM)	9400	2300	4.2
COc1cc(CS(=O)(=O)N2CCN(c3cnn(-c4cccc(Cl)c4)c(=O)c3OCC3(C)CC3)CC2)ccc1N	6.98	0.06 (≈ 0.105 µM)	0.52 (≈ 0.906 µM)	13100	3300	2.08
O=c1c(OC2CCCC2)c(N2CCN(S(=O)(=O)Cc3ccncc3)CC2)cnn1-c1cc(F)cc(F)c1	6.25	0.2 (≈ 0.376 µM)	3.1 (≈ 5.83 µM)	20		
CC1(COc2c(N3CCN(S(=O)(=O)Cc4ccc(N)c(C(N)=O)c4)CC3)cnn(-c3cccc(Cl)c3)c2=O)CC1	6.29	8.34 (≈ 14.2 µM)	> 33			> 33
CNc1ccc(CS(=O)(=O)N2CCN(c3cnn(-c4cccc(Cl)c4)c(=O)c3OCC3(C)CC3)CC2)cc1	7.75	0.78 (≈ 1.4 µM)	0.2 (≈ 0.358 µM)			> 50
O=c1c(OC2CCCC2)c(N2CCN(S(=O)(=O)Cc3cc(C(F)(F)F)cc(C(F)(F)F)c3)CC2)cnn1-c1cccc(Cl)c1	< 3.65	> 50	> 50			

Second part, led by results:

pIC50 (Beta-1,3-glucan synthase)	MIC (Nakaseomyces glabratus) [µg/mL]	MIC (Candida albicans) [µg/mL]	AUC(0-t) at 6 h [1] [ng·h/mL]	Cmax [2] [ng/mL]	SMILES	minimal effective concentration (Aspergillus fumigatus) [µg/mL]
6.04	0.02 (≈ 0.0367 µM)	3.13 (≈ 5.74 µM)			O=c1c(OC2CCOCC2)c(N2CCN(S(=O)(=O)Cc3ccccc3)CC2)cnn1-c1cccc(Cl)c1	
5.17	1.6 (≈ 2.7 µM)	> 50			O=c1c(OC2CCCc3ncccc32)c(N2CCN(S(=O)(=O)Cc3ccccc3)CC2)cnn1-c1cccc(Cl)c1 (configuration not stated)	
6.96	0.05 (≈ 0.0914 µM)	1.56 (≈ 2.85 µM)			O=c1c(OC2CCCC2)c(N2CCN(S(=O)(=O)Cc3ccc(F)cc3)CC2)cnn1-c1cccc(Cl)c1	
5.38	25 (≈ 43.6 µM)	> 50			O=C(O)c1ccc(CS(=O)(=O)N2CCN(c3cnn(-c4cccc(Cl)c4)c(=O)c3OC3CCCC3)CC2)cc1	
7.04	0.2 (≈ 0.368 µM)	0.78 (≈ 1.43 µM)			Nc1ccc(CS(=O)(=O)N2CCN(c3cnn(-c4cccc(Cl)c4)c(=O)c3OC3CCCC3)CC2)cc1	
6.96	0.26 (≈ 0.478 µM)	1.04 (≈ 1.91 µM)	8100	1900	CC1(COc2c(N3CCN(S(=O)(=O)Cc4ccc(N)cc4)CC3)cnn(-c3cccc(Cl)c3)c2=O)CC1	4.2
6.85	0.31 (≈ 0.55 µM)	0.63 (≈ 1.12 µM)			O=c1c(OC2CCCC2)c(N2CCN(S(=O)(=O)Cc3ccc(Cl)cc3)CC2)cnn1-c1cccc(Cl)c1	
7.25	< 0.02	0.1 (≈ 0.189 µM)			CC1(COc2c(N3CCN(S(=O)(=O)Cc4ccccc4)CC3)cnn(-c3cccc(Cl)c3)c2=O)CC1	
5.83	< 0.02	0.78 (≈ 1.44 µM)			O=c1c(OC2CCCCC2)c(N2CCN(S(=O)(=O)Cc3ccccc3)CC2)cnn1-c1cccc(Cl)c1	
5.97	0.39 (≈ 0.689 µM)	6.25 (≈ 11 µM)			O=c1c(OCCc2ccccn2)c(N2CCN(S(=O)(=O)Cc3ccccc3)CC2)cnn1-c1cccc(Cl)c1	
7.13	0.13 (≈ 0.239 µM)	0.52 (≈ 0.956 µM)	5700	1400	CC1(COc2c(N3CCN(S(=O)(=O)Cc4cccc(N)c4)CC3)cnn(-c3cccc(Cl)c3)c2=O)CC1	1.04
6.80	0.05 (≈ 0.0887 µM)	1.56 (≈ 2.77 µM)			O=c1c(OC2CCCC2)c(N2CCN(S(=O)(=O)Cc3cccc(Cl)c3)CC2)cnn1-c1cccc(Cl)c1	
6.42	< 0.02	0.39 (≈ 0.737 µM)			O=c1c(OC2CCCC2)c(N2CCN(S(=O)(=O)Cc3ccccc3)CC2)cnn1-c1cccc(Cl)c1	
5.78	0.78 (≈ 1.43 µM)	25 (≈ 45.9 µM)			O=c1c(OC2CCC(O)C2)c(N2CCN(S(=O)(=O)Cc3ccccc3)CC2)cnn1-c1cccc(Cl)c1 (configuration not stated)	
7.14	0.2 (≈ 0.366 µM)	0.39 (≈ 0.713 µM)			O=c1c(OC2CCCC2)c(N2CCN(S(=O)(=O)Cc3ccccc3F)CC2)cnn1-c1cccc(Cl)c1	
6.45	0.39 (≈ 0.652 µM)	> 50			O=c1c(OC2CCCC2)c(N2CCN(S(=O)(=O)Cc3cc(Cl)cc(Cl)c3)CC2)cnn1-c1cccc(Cl)c1	
7.26	< 0.02	0.2 (≈ 0.366 µM)			O=c1c(OCC2(CF)CC2)c(N2CCN(S(=O)(=O)Cc3ccccc3)CC2)cnn1-c1cccc(Cl)c1	
7.25	0.4 (≈ 0.754 µM)	0.39 (≈ 0.735 µM)			O=c1c(OC2CCCC2)c(N2CCN(S(=O)(=O)Cc3ccccc3)CC2)cnn1-c1cc(F)cc(F)c1	
5.86	0.78 (≈ 1.35 µM)	12.5 (≈ 21.6 µM)			O=c1c(OC2CCc3cccnc32)c(N2CCN(S(=O)(=O)Cc3ccccc3)CC2)cnn1-c1cccc(Cl)c1 (configuration not stated)	
